This assay deals with T1, human liver GK (Homo sapiens, UniProt P35557).
T1 construct: GST (glutathione S-transferase) (N); made in house; host or cells: E. coli
T1 sequence (P35557 1-466 isoform P35557-2): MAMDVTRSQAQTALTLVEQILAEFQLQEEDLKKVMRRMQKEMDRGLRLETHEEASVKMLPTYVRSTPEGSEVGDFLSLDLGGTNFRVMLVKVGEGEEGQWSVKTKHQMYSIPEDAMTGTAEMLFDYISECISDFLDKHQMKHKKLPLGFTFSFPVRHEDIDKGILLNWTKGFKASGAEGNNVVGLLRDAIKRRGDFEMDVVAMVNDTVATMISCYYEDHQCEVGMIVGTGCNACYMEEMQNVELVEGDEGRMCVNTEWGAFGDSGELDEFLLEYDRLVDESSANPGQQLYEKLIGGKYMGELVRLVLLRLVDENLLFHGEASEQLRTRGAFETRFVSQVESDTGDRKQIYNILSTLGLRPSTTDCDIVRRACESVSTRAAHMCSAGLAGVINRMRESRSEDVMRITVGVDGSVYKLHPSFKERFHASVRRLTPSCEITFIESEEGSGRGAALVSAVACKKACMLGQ
As to the kind of experiment: GK activation test. The conditions noted are these: test compound concentration needed to activate 50% of maximum activation ability; 4 mM 14C-labeled glucose, 2 mM ATP, room temperature, 20 minutes. Format: biochemical. Summed up: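 GST-tagged human liver GK from E. coli (0.24 μg/well) with 4 mM 14C-glucose, 2 mM ATP in Hepes-KOH pH 7.1, KCl, MgCl2, DTT, 1% DMSO, 20 min room temperature. Labeled glucose 6-phosphate captured on anion resin, eluted and counted. EC50 = concentration giving half of maximal activation.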

As a reminder, the EC50 is the concentration giving half of the maximal effect. In turn, `COc1cc(F)c(/C(=C\[C@H]2CCC(=O)N2)c2ccc(C3CC3)c(=O)[nH]2)cc1Cl` [Example 4-274, 6-{(E)-1-(5-Chloro-2-fluoro-4-methoxyphenyl)-2-[(2R)-5-oxopyrrolidin-2-yl]ethenyl}-3-cyclopropylpyridin-2(1H)-one] registered an EC50 of 10 to 500 nM.
For the compound `CC(C)Oc1ccc(/C(=C\[C@H]2CCC(=O)N2)c2ccc(C3CC3)c(=O)[nH]2)cc1F` [Example 4-275, 3-Cyclopropyl-6-{(E)-1-[3-fluoro-4-(propan-2-yloxy)phenyl]-2-[(2R)-5-oxopyrrolidin-2-yl]ethenyl}pyridin-2(1H)-one], the EC50 was 10 to 500 nM.
The same measure for `CC(C)Oc1ccc(/C(=C\[C@H]2CCC(=O)N2)c2ccc(C3CC3)c(=O)[nH]2)cc1` [Example 4-276, 3-Cyclopropyl-6-{(E)-2-[(2R)-5-oxopyrrolidin-2-yl]-1-[4-(propan-2-yloxy)phenyl]ethenyl}pyridin-2(1H)-one]: 10 to 500 nM.
The same measure for `O=C1CC[C@H](/C=C(\c2ccc(CO)cc2)c2ccc(Cl)c(=O)[nH]2)N1` [Example 4-277, 3-Chloro-6-{(E)-1-[4-(hydroxymethyl)phenyl]-2-[(2R)-5-oxopyrrolidin-2-yl]ethenyl}pyridin-2(1H)-one]: 3000 to 10000 nM; for `CCCOc1ccc(/C(=C\[C@H]2CCC(=O)N2)c2ccc(C3CC3)c(=O)[nH]2)cc1` [Example 4-279, 3-Cyclopropyl-6-[(E)-2-[(2R)-5-oxopyrrolidin-2-yl]-1-(4-propoxyphenyl)ethenyl]pyridin-2(1H)-one]: 10 to 500 nM.
The same measure for `CCCOc1ccc(/C(=C\[C@H]2CCC(=O)N2)c2ccc(C3CC3)c(=O)[nH]2)cc1Cl` [Example 4-280, 6-{(E)-1-(3-Chloro-4-propoxyphenyl)-2-[(2R)-5-oxopyrrolidin-2-yl]ethenyl}-3-cyclopropylpyridin-2(1H)-one]: 10 to 500 nM; for `O=C1CC[C@H](/C=C(\c2ccc(OC(F)F)c(Cl)c2)c2ccc(C3CC3)c(=O)[nH]2)N1` [Example 4-281, 6-{(E)-1-[3-Chloro-4-(difluoromethoxy)phenyl]-2-[(2R)-5-oxopyrrolidin-2-yl]ethenyl}-3-cyclopropylpyridin-2(1H)-one]: 10 to 500 nM.
`CCOc1ccc(/C(=C\[C@H]2CCC(=O)N2)c2ccc(C3CC3)c(=O)[nH]2)c(F)c1F` [Example 4-282, 3-Cyclopropyl-6-{(E)-1-(4-ethoxy-2,3-difluorophenyl)-2-[(2R)-5-oxopyrrolidin-2-yl]ethenyl}pyridin-2(1H)-one] had an EC50 of 10 to 500 nM.
For `O=C1CC[C@H](/C=C(\c2ccc(OC3CCCC3)cc2)c2ccc(C3CC3)c(=O)[nH]2)N1` [Example 4-283, 6-{(E)-1-[4-(Cyclopentyloxy)phenyl]-2-[(2R)-5-oxopyrrolidin-2-yl]ethenyl}-3-cyclopropylpyridin-2(1H)-one] the value was 10 to 500 nM.
For `CCOc1ccc(/C(=C\[C@H]2CCC(=O)N2)c2ccc(C3CC3)c(=O)[nH]2)cc1F` [Example 4-284, 3-Cyclopropyl-6-{(E)-1-(4-ethoxy-3-fluorophenyl)-2-[(2R)-5-oxopyrrolidin-2-yl]ethenyl}pyridin-2(1H)-one] the value was 10 to 500 nM; for `N#Cc1ccc(/C(=C\[C@H]2CCC(=O)N2)c2ccc(C3CC3)c(=O)[nH]2)cc1` [Example 4-285, 4-{(E)-1-(5-Cyclopropyl-6-oxo-1,6-dihydropyridin-2-yl)-2-[(2R)-5-oxopyrrolidin-2-yl]ethenyl}benzonitrile], 500 to 3000 nM.
The same measure for `CCOc1ccc(/C(=C\[C@H]2CCC(=O)N2)c2ccc(C3CC3)c(=O)[nH]2)c(Cl)c1` [Example 4-286, 6-{(E)-1-(2-Chloro-4-ethoxyphenyl)-2-[(2R)-5-oxopyrrolidin-2-yl]ethenyl}-3-cyclopropylpyridin-2(1H)-one]: 10 to 500 nM; for `O=C1CC[C@H](/C=C(\c2ccc(OCCF)cc2)c2ccc(C3CC3)c(=O)[nH]2)N1` [Example 4-287, 3-Cyclopropyl-6-{(E)-1-[4-(2-fluoroethoxy)phenyl]-2-[(2R)-5-oxopyrrolidin-2-yl]ethenyl}pyridin-2(1H)-one]: 10 to 500 nM; for `N#Cc1cc(/C(=C\[C@H]2CCC(=O)N2)c2ccc(C3CC3)c(=O)[nH]2)ccc1F` [Example 4-288, 5-{(E)-1-(5-Cyclopropyl-6-oxo-1,6-dihydropyridin-2-yl)-2-[(2R)-5-oxopyrrolidin-2-yl]ethenyl}-2-fluorobenzonitrile]: 3000 to 10000 nM.
Compound `O=C1CC[C@H](/C=C(\c2ccc(S(=O)(=O)C3CC3)c(Cl)c2)c2ccc(C3CC3)c(=O)[nH]2)N1` [Example 4-289, 6-{(E)-1-[3-Chloro-4-(cyclopropylsulfonyl)phenyl]-2-[(2R)-5-oxopyrrolidin-2-yl]ethenyl}-3-cyclopropylpyridin-2(1H)-one] yielded an EC50 of 10 to 500 nM.
For `O=C1CC[C@H](/C=C(\c2ccc(S(=O)(=O)C3CC3)cc2)c2ccc(C3CC3)c(=O)[nH]2)N1` [Example 4-290, 3-Cyclopropyl-6-{(E)-1-[4-(cyclopropylsulfonyl)phenyl]-2-[(2R)-5-oxopyrrolidin-2-yl]ethenyl}pyridin-2(1H)-one] the value was 10 to 500 nM; for `O=C1CC[C@H](/C=C(\c2ccc(S(=O)(=O)Cc3ccccc3)cc2)c2ccc(C3CC3)c(=O)[nH]2)N1` [Example 4-291, 6-{(E)-1-[4-(Benzylsulfonyl)phenyl]-2-[(2R)-5-oxopyrrolidin-2-yl]ethenyl}-3-cyclopropylpyridin-2(1H)-one], 10 to 500 nM; for `CN(C)S(=O)(=O)c1ccc(/C(=C\[C@H]2CCC(=O)N2)c2ccc(C3CC3)c(=O)[nH]2)cc1` [Example 4-292, 4-{(E)-1-(5-Cyclopropyl-6-oxo-1,6-dihydropyridin-2-yl)-2-[(2R)-5-oxopyrrolidin-2-yl]ethenyl}-N,N-dimethylbenzenesulfonamide], 10 to 500 nM.
The same measure for `O=C1CC[C@H](/C=C(\c2ccc(S(=O)(=O)Cc3ccccc3)c(Cl)c2)c2ccc(C3CC3)c(=O)[nH]2)N1` [Example 4-293, 6-{(E)-1-[4-(Benzylsulfonyl)-3-chlorophenyl]-2-[(2R)-5-oxopyrrolidin-2-yl]ethenyl}-3-cyclopropylpyridin-2(1H)-one]: 10 to 500 nM; for `CC(C)(C)c1ccc(C(C[C@H]2CCC(=O)N2)c2ccc(C3CC3)c(=O)[nH]2)cc1` (stereo partly drawn) [Example 4-358, 6-{1-(4-tert-Butylphenyl)-2-[(2R)-5-oxopyrrolidin-2-yl]ethyl}-3-cyclopropylpyridin-2(1H)-one]: 10 to 500 nM; for `O=C1CC[C@H](/C=C(\c2ccc(Cl)cc2)c2ccc(-c3cn[nH]c3)c(=O)[nH]2)N1` [Example 4-359, 6-{(E)-1-(4-Chlorophenyl)-2-[(2R)-5-oxopyrrolidin-2-yl]ethenyl}-3-(1H-pyrazol-4-yl)pyridin-2(1H)-one]: 10 to 500 nM.
For `O=C1CC[C@H](/C=C(\c2ccc(C(F)(F)F)cc2)c2ccc(-c3cn[nH]c3)c(=O)[nH]2)N1` [Example 4-360, 6-{(E)-2-[(2R)-5-Oxopyrrolidin-2-yl]-1-[4-(trifluoromethyl)phenyl]ethenyl}-3-(1H-pyrazol-4-yl)pyridin-2(1H)-one] the value was 10 to 500 nM; for `CC(C)(C)c1ccc(/C(=C\[C@H]2CCC(=O)N2)c2ccc(-c3cn[nH]c3)c(=O)[nH]2)cc1` [Example 4-361, 6-{(E)-1-(4-tert-Butylphenyl)-2-[(2R)-5-oxopyrrolidin-2-yl]ethenyl}-3-(1H-pyrazol-4-yl)pyridin-2(1H)-one], 10 to 500 nM.
For `Cc1ccc(/C(=N/OC2CCCC2)c2ccc(S(C)(=O)=O)cc2)[nH]c1=O` [Example 5-3, (E)-6-{(Cyclopentyloxyimino)[4-(methylsulfonyl)phenyl]methyl}-3-methylpyridin-2(1H)-one], the EC50 lay within 3000 to 10000 nM.
Take `CC(C)(C)c1ccc(/C(=C\CO)c2ccc(Cl)c(=O)[nH]2)cc1` [Example 6-1, 6-[(1E)-1-(4-tert-Butylphenyl)-3-hydroxyprop-1-en-1-yl]-3-chloropyridin-2(1H)-one]: the EC50 is 3000 to 10000 nM.
The same measure for `CC(C)(C)c1ccc(/C(=C\CN2CCOC2=O)c2ccc(Cl)c(=O)[nH]2)cc1` [Example 6-2, 6-[(1E)-1-(4-tert-Butylphenyl)-3-(2-oxo-1,3-oxazolidin-3-yl)prop-1-en-1-yl]-3-chloropyridin-2(1H)-one]: 10 to 500 nM; for `CC(C)(C)c1ccc(/C(=C\CN2CCCC2=O)c2ccc(Cl)c(=O)[nH]2)cc1` [Example 6-3, 6-[(1E)-1-(4-tert-Butylphenyl)-3-(2-oxopyrrolidin-1-yl)prop-1-en-1-yl]-3-chloropyridin-2(1H)-one]: 10 to 500 nM.
The same measure for `CC(C)(C)c1ccc(/C(=C\CN2CCCCC2=O)c2ccc(Cl)c(=O)[nH]2)cc1` [Example 6-4, 6-[(1E)-1-(4-tert-Butylphenyl)-3-(2-oxopiperidin-1-yl)prop-1-en-1-yl]-3-chloropyridin-2(1H)-one]: 500 to 3000 nM.
In the case of `CC(C)(C)c1ccc(/C(=C\CN2CCOCC2)c2ccc(Cl)c(=O)[nH]2)cc1` [Example 6-5, 6-[(1E)-1-(4-tert-Butylphenyl)-3-(morpholin-4-yl)prop-1-en-1-yl]-3-chloropyridin-2(1H)-one], the EC50 lay in the range of 3000 to 10000 nM.

The values are drawn from US8822503B2, “2-pyridone compounds” (Taisho Pharmaceutical Co., Ltd, priority 2009, dated 2014).
